In test [1] the test system is complex I of the respiratory chain of endothelial cells. The experiment in a line: ROS production by complex I of the respiratory chain. Conditions: by inhibiting reverse electron flow. In kind it is cell-based.
For test [2], the system named is infarct size / area at risk. The experiment in a line: Model of myocardial infarction in the rabbit (30 min coronary occlusion, 4 h reperfusion). In kind it is in vivo. The note with it: for AN (area of necrosis) / AN/AR / AN/LV: group mean (extent of values). On the procedure:
Male New Zealand albino rabbits weighing between 2.2 and 2.5 kg were anesthetized by intramuscular injection of xylazine (5 mg/kg) and ketamine (50 mg/kg). An intravenous infusion of a mixture of xylazine (20 to 50 μg/kg/min) and ketamine (40 to 100 μg/kg/min) was maintained throughout the test.
After a median cervical incision, a tracheotomy was performed and the animals were ventilated with ambient air. A cannula was inserted in the right internal jugular vein for administration of the medicinal products and fluids and in the left carotid artery for measurement of blood pressure. After an intravenous bolus administration of fentanyl ([…]), a left thoracotomy was performed at the level of the fourth left intercostal space. The pericardium was opened and the heart was exposed. A 3.0 suture thread attached to a small curved needle was passed around a marginal branch of the left circumflex coronary artery. The two ends of the thread were passed through a small vinyl tube to form a collar that could be tightened for occluding and released for reperfusing the artery. Body temperature was monitored via an intraperitoneal thermometer and kept constant by means of a heating block. The heart rate and arterial pressure were monitored continuously on a Gould recorder (Gould Inc., Cleveland, Ohio).
After surgery, a period of stabilization of 15 minutes was observed.
The rabbits are randomly distributed into 4 groups. All the animals undergo a prolonged occlusion of 30 minutes of the coronary artery, followed by 4 hours of reperfusion. Five minutes before reperfusion, the rabbits receive an intravenous injection of either: • a vehicle (volume corresponding to dose 1 or 2 of E 008) (Control, C), • E 008 at dose 1, • E 008 at dose 2, • of ciclosporin A (CsA) at 10 mg/kg.
The sample size is 8 to 10 animals per group. In these groups, the hearts were collected at the end of the period of 4 hours of reperfusion for subsequent evaluation of infarct size.
After 4 hours of reperfusion, the coronary artery was briefly reoccluded and 0.5 mg/kg of Uniperse blue pigment (Ciba-Geigy®, Hawthorne N.Y.) was injected intravenously for delimiting the area at risk in viva With this technique, the previously nonischemic myocardium appears blue, whereas the previously ischemic myocardium (area at risk) remains unstained.
The anesthetized rabbits were then euthanized by intravenous injection of pentobarbital. The heart was excised and cut into transverse slices with thickness of 5 to 6 mm, parallel to the atrioventricular sulcus. After removing the tissue of the right ventricle, each slice was weighed. The basal surface of each slice was photographed for later measurement of the area at risk. Each slice was then incubated for 15 minutes in a 1% solution of triphenyltetrazolium chloride at 37° C. for differentiating the myocardial zones that were infarcted (pale) and viable (brick red). The slices were then photographed again. Magnified projections of these slices were traced for determining the boundaries of the area at risk (AR) and of the area of necrosis (AN). The extent of these areas at risk and of necrosis was quantified by planimetry by computer and corrected relative to the weight of the tissue slices. The total weights of the area at risk and of the area of necrosis were then calculated and expressed in grams and as a percentage of total left ventricle (LV) and of the weight of the area at risk, respectively. […] Evaluation of infarct size was performed blind.
The results are presented in the following table in the form of value averaged for all the animals of a group, the figure in parentheses representing the extent of the values measured for the different animals.

For test [3], the system named is human immortalized microvascular dermal endothelial cells HMEC-1. The experiment in a line: Mitochondrial membrane potential (TMRM, confocal microscopy) after ischemia/reperfusion. Format: cell-based. The note with it: 10 mM for 30 min; for mitochondrial membrane potential after reperfusion: then 60 min ischemia and 90/120 min reperfusion. On the procedure:
The objective of this study is to evaluate the protective effect of the compound E 008 on vascular injury due to ischemia/reperfusion, by measuring the effect of E 008 on loss of mitochondrial membrane potential induced by ischemia/reperfusion.
The line of human immortalized microvascular dermal endothelial cells HMEC-1 was used.
The cells were treated according to the following scheme: • control group: no treatment, followed by ischemia of 60 min and reperfusion of 120 min. • metformin group: incubation with metformin at a concentration of 10 mM for 30 min, followed by ischemia of 60 min and reperfusion of 120 min. • E 008 group: incubation with the compound E 008 at a concentration of 10 mM for 30 min followed by ischemia of 60 min and reperfusion of 120 min. Measurement of Mitochondrial Membrane Potential
In order to measure the mitochondrial potential, the cells were incubated, throughout the above treatment, with the fluorescent probe tetramethylrhodamine methyl ester (TMRM) at a concentration of 30 nM.
They were analyzed in confocal microscopy before treatment, after 60 min of ischemia, after 90 min of reperfusion and after 120 min of reperfusion (FIG. 1).

Where [4] appears, read: E 008 1 mg/kg i.v. 5 min before reperfusion.
[5] abbreviates: E 008 5 mg/kg i.v. 5 min before reperfusion.

SMILES strings stand for the structures.

On to `CC1N=C(N)NC(N(C)C)=N1` (stereo not shown) [E 008], for which, in test [1], the “production of ROS by complex I of the respiratory chain” value is listed as “reduce the production of ROS”. In test [2] (setting [4]), the “AN (area of necrosis)” value was 0.31 (±0.15) g, the AN/AR is reported as 33.9 (±12.2) % and the AN/LV is on record as 11.8 (±5) %. For the same molecule, the “protection in the model of myocardial infarction” value in test [2] (E 008 5 mg/kg i.v.) is recorded as “significant protection”. Also, in test [2] (setting [5]), the “AN (area of necrosis)” value was 0.21 (±0.09) g, the AN/AR is listed as 29.4 (±10.3) % and the AN/LV is recorded as 8.3 (±3.7) %. The “infarct size relative to ciclosporin A” value in test [2] (E 008 5 mg/kg i.v. vs CsA 10 mg/kg) was “reduction in infarct size relative to ciclosporin A”. Also, the “infarct size relative to the control” value in test [2] (i.v. 5 min before reperfusion, dose not given) is “significant reduction in infarct size”. Moreover, the “mitochondrial membrane potential after reperfusion” value in test [3] is reported as “protected from the damage due to reperfusion”. Further, in test [3] (then 60 min ischemia and 120 min reperfusion), the “protective effect against loss of membrane potential compared with metformin” value is recorded as “better protective effect”.
With `CN(C)C(=N)N=C(N)N` [metformin, reference compound], in test [3], the “mitochondrial membrane potential after reperfusion” value is “protected from the damage due to reperfusion”.

The values above are taken from US8937066B2, “Amino derivatives of dihydro-1,3,5-triazine used in the treatment of ischemia and/or reperfusion related diseases” (Poxel, priority 2009, dated 2015).
